According to patent US20230322785A1, “ADENOSINE A2A AND A2B RECEPTOR DUAL ANTAGONISTS FOR IMMUNO-ONCOLOGY” (Merck Sharp & Dohme LLC, priority 2020, published 2023):

What follows are compounds tested against T1, human A2A adenosine receptor (Homo sapiens, UniProt P29274) (assay: A2A binding affinity, Method (B): scintillation proximity assay (SPA) with [3H]SCH58261). Settings: membranes of HEK293 or CHO cells expressing the human receptor.
T1 construct: expressed in transfected cells; host or cells: HEK293 or CHO cells
From the text: Method (A) describes the procedure used to measure A2A binding affinity using radioligand binding. Method (B) describes the procedure used to measure A2A binding affinity using SPA technology. The method used to measure A2B binding affinity is also described below. The method used to determine the A2A IC50 value reported for each compound in the table is indicated next to the reported value. The A2B IC50 value measured using the A2B binding affinity assay is shown in the table next to the compound under the corresponding A2A value.
The A2A receptor affinity binding assay measured the amount of binding of a tritiated ligand with high affinity for the A2A adenosine receptor to membranes made from HEK293 or CHO cells recombinantly expressing the human A2A adenosine receptor, in the presence of varying concentrations of a compound of the invention. The data were generated using either filtration binding or a homogenous scintillation proximity assay (SPA).
Method (B): Measurement of A2A Binding Affinity Using SPA
Binding affinity using SPA was conducted as follows. Test compounds (50 nL) were dispensed into individual wells of a 384-well OptiPlate™ well (Perkin Elmer) by Echo® acoustic liquid transfer (Labcyte). 20 µL of 1.25 nM [^3H] SCH58261 ((7-(2-phenylethyl)-5-amino-2-(2-furyl)-pyrazolo-[4,3-e]-1,2,4-triazolo[1,5-c]pyrimidine)) in DPBS assay buffer (Dulbecco’s phosphate buffered saline without calcium and magnesium, ThermoFisher Scientific, Cat. No. A1285601) supplemented with 10 mM MgCl2 was added. A2A receptor-expressing membranes were incubated with 20 µg/mL adenosine deaminase (Roche, Cat. No. 10 102 105 001) for 15 min at room temperature. The receptor-expressing membranes were then combined with wheat germ agglutinin-coated yttrium silicate SPA beads (GE Healthcare, Cat. No. RPNQ0023) in a ratio of […] (w/w) and incubated for 30 min at room temperature. 30 µL of the membrane/bead mixture (0.25 µg and 25 µg per well respectively) were added to the 384-well OptiPlate™ well. To define total and non-specific binding, wells containing 1% DMSO or 1 µM CGS 15943 (Tocris Bioscience, Cat. No. 1699) respectively were also included in the experiment. The plate was incubated for 1 h at room temperature with agitation. The assay plate was then incubated for an h to allow the beads to settle before data were collected using a TopCount® (Perkin Elmer) scintillation counter. After normalization to total and non-specific binding, the percent effect at each compound concentration was calculated. The plot of percent effect versus the log of compound concentration was analyzed electronically using a 4-parameter logistic fit based on the Levenberg-Marquardt algorithm to generate IC50 values.

T1 sequence (P29274 whole entry): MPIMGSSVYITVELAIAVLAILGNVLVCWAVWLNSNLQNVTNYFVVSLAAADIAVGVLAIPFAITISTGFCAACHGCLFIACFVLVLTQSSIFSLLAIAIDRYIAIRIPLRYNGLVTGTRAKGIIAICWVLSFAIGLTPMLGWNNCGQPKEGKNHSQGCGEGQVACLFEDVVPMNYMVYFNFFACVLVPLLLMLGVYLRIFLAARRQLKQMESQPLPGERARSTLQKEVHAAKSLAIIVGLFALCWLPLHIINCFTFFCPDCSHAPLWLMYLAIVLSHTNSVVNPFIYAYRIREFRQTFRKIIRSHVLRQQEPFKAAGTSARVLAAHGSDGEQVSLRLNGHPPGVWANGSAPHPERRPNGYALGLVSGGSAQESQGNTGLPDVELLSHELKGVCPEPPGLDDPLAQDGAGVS

Row | Structure (SMILES) | IC50 [nM]
1 | CCN(Cc1nc2c3cccc(OC)c3nc(N)n2n1)CC1CCN(c2ncc(F)cn2)CC1 [Example 15.16, 2-((ethyl((1-(5-fluoropyrimidin-2-yl)piperidin-4-yl)methyl)amino)methyl)-7-methoxy-[1,2,4]triazolo[1,5-c]quinazolin-5-amine] | 31
2 | COc1cccc2c1nc(N)n1nc(CN(Cc3ccc(Br)cc3)CC3CC3)nc21 [Example 15.17, 2-(((4-bromobenzyl)(cyclopropylmethyl)amino)methyl)-7-methoxy-[1,2,4]triazolo[1,5-c]quinazolin-5-amine] | 3.2
3 | COc1cccc2c1nc(N)n1nc(CN(Cc3ccccn3)CC3CC3)nc21 [Example 16.1, 2-(((cyclopropylmethyl)(pyridin-2-ylmethyl)amino)methyl)-7-methoxy-[1,2,4]triazolo[1,5-c]quinazolin-5-amine] | 12.8
4 | COc1cccc2c1nc(N)n1nc(CN(Cc3cccnc3)CC3CC3)nc21 [Example 16.2, 2-(((cyclopropylmethyl)(pyridin-3-ylmethyl)amino)methyl)-7-methoxy-[1,2,4]triazolo[1,5-c]quinazolin-5-amine] | 5.3
5 | COc1cccc2c1nc(N)n1nc(CN(Cc3cccc(Br)n3)CC3CC3)nc21 [Example 16.3, 2-((((6-bromopyridin-2-yl)methyl)(cyclopropylmethyl)amino)methyl)-7-methoxy-[1,2,4]triazolo[1,5-c]quinazolin-5-amine] | 14.6
6 | COc1cccc2c1nc(N)n1nc(CN(Cc3ccc(N4CCOCC4)nc3)CC3CC3)nc21 [Example 16.4, 2-(((cyclopropylmethyl)((6-morpholinopyridin-3-yl)methyl)amino)methyl)-7-methoxy-[1,2,4]triazolo[1,5-c]quinazolin-5-amine] | 10.9
7 | COc1ccc(CN(Cc2nc3c4cccc(OC)c4nc(N)n3n2)CC2CC2)cn1 [Example 16.5, 2-(((cyclopropylmethyl)((6-methoxypyridin-3-yl)methyl)amino)methyl)-7-methoxy-[1,2,4]triazolo[1,5-c]quinazolin-5-amine] | 9.2
8 | COc1cccc2c1nc(N)n1nc(CN(Cc3ccc(OC4CCCCC4)nc3)CC3CC3)nc21 [Example 16.6, 2-((((6-(cyclohexyloxy)pyridin-3-yl)methyl)(cyclopropylmethyl)amino)methyl)-7-methoxy-[1,2,4]triazolo[1,5-c]quinazolin-5-amine] | 6.6
9 | COc1cccc2c1nc(N)n1nc(CN(Cc3ccc(OC(C)C)nc3)CC3CC3)nc21 [Example 16.7, 2-(((cyclopropylmethyl)((6-isopropoxypyridin-3-yl)methyl)amino)methyl)-7-methoxy-[1,2,4]triazolo[1,5-c]quinazolin-5-amine] | 13.5
10 | COc1cccc2c1nc(N)n1nc(CN(Cc3ccc(C(F)(F)F)nc3)CC3CC3)nc21 [Example 16.8, 2-(((cyclopropylmethyl)((6-(trifluoromethyl)pyridin-3-yl)methyl)amino)methyl)-7-methoxy-[1,2,4]triazolo[1,5-c]quinazolin-5-amine] | 24.1
11 | COc1cccc2c1nc(N)n1nc(CN(Cc3ccc(NC(=O)C(C)(C)C)nc3)CC3CC3)nc21 [Example 16.9] | 5.2
12 | COc1cccc2c1nc(N)n1nc(CN(Cc3ccnc4[nH]ccc34)CC3CC3)nc21 [Example 16.10, 2-((((1H-pyrrolo[2,3-b]pyridin-4-yl)methyl)(cyclopropylmethyl)amino)methyl)-7-methoxy-[1,2,4]triazolo[1,5-c]quinazolin-5-amine] | 2.3
13 | COc1cccc2c1nc(N)n1nc(CN(Cc3ncco3)CC3CC3)nc21 [Example 16.11, 2-(((cyclopropylmethyl)(oxazol-2-ylmethyl)amino)methyl)-7-methoxy-[1,2,4]triazolo[1,5-c]quinazolin-5-amine] | 9.4
14 | COc1cccc2c1nc(N)n1nc(CN(CC3CC3)C3CN(C(=O)OC(C)(C)C)C3)nc21 [Example 16.12, tert-butyl 3-(((5-amino-7-methoxy-[1,2,4]triazolo[1,5-c]quinazolin-2-yl)methyl)(cyclopropylmethyl)amino)azetidine-1-carboxylate] | 5.7
15 | COc1cccc2c1nc(N)n1nc(CN(Cc3ccc(-c4ccccn4)cc3)CC3CC3)nc21 [Example 16.13, 2-(((cyclopropylmethyl)(4-(pyridin-2-yl)benzyl)amino)methyl)-7-methoxy-[1,2,4]triazolo[1,5-c]quinazolin-5-amine] | 2.6
16 | COc1ccc(CN(Cc2nc3c4cccc(OC)c4nc(N)n3n2)CC2CC2)cc1 [Example 16.14, 2-(((cyclopropylmethyl)(4-methoxybenzyl)amino)methyl)-7-methoxy-[1,2,4]triazolo[1,5-c]quinazolin-5-amine] | 7.2
17 | COc1cccc(CN(Cc2nc3c4cccc(OC)c4nc(N)n3n2)CC2CC2)c1 [Example 16.15, 2-(((cyclopropylmethyl)(3-methoxybenzyl)amino)methyl)-7-methoxy-[1,2,4]triazolo[1,5-c]quinazolin-5-amine] | 3.5
18 | COc1cccc2c1nc(N)n1nc(CN(Cc3cccc4ncccc34)CC3CC3)nc21 [Example 16.16, 2-(((cyclopropylmethyl)(quinolin-5-ylmethyl)amino)methyl)-7-methoxy-[1,2,4]triazolo[1,5-c]quinazolin-5-amine] | 3.5
19 | COc1cccc2c1nc(N)n1nc(CN(Cc3ccc(F)c(F)c3F)CC3CC3)nc21 [Example 16.17, 2-(((cyclopropylmethyl)(2,3,4-trifluorobenzyl)amino)methyl)-7-methoxy-[1,2,4]triazolo[1,5-c]quinazolin-5-amine] | 4.8
20 | COc1cccc2c1nc(N)n1nc(CN(CC(F)F)CC3CC3)nc21 [Example 17.1, 2-(((cyclopropylmethyl)(2,2-difluoroethyl)amino)methyl)-7-methoxy-[1,2,4]triazolo[1,5-c]quinazolin-5-amine] | 2.5

The next lines start with the values.

Row | IC50 [nM] | Structure (SMILES)
21 | 20.2 | COc1cccc2c1nc(N)n1nc(CN(Cc3ccc(C(F)(F)F)cc3)C[C@@H]3CO3)nc21 [Example 18.1, (R)-7-methoxy-2-(((oxiran-2-ylmethyl)(4-(trifluoromethyl)benzyl)amino)methyl)-[1,2,4]triazolo[1,5-c]quinazolin-5-amine]
22 | 7.5 | COc1cccc2c1nc(N)n1nc(CN(Cc3ccc(C(F)(F)F)cc3)S(C)(=O)=O)nc21 [Example 19.2, N-((5-amino-7-methoxy-[1,2,4]triazolo[1,5-c]quinazolin-2-yl)methyl)-N-(4-(trifluoromethyl)benzyl)methanesulfonamide]
23 | 115 | COc1cccc2c1nc(N)n1nc(CN(Cc3ccc(C(F)(F)F)cc3)S(=O)(=O)C(F)(F)F)nc21 [Example 19.3, N-((5-amino-7-methoxy-[1,2,4]triazolo[1,5-c]quinazolin-2-yl)methyl)-1,1,1-trifluoro-N-(4-(trifluoromethyl)benzyl)methanesulfonamide]
24 | 50.4 | COc1cccc2c1nc(N)n1nc(CN(Cc3ccc(OC(F)(F)F)cc3)S(=O)(=O)C(F)(F)F)nc21 [Example 19.4, N-((5-amino-7-methoxy-[1,2,4]triazolo[1,5-c]quinazolin-2-yl)methyl)-1,1,1-trifluoro-N-(4-(trifluoromethoxy)benzyl)methanesulfonamide]
25 | 17.6 | COc1cccc2c1nc(N)n1nc(CN(Cc3ccc(C(F)(F)F)cc3)S(=O)(=O)C3CC3)nc21 [Example 19.5, N-((5-amino-7-methoxy-[1,2,4]triazolo[1,5-c]quinazolin-2-yl)methyl)-N-(4-(trifluoromethyl)benzyl)cyclopropanesulfonamide]
26 | 50.7 | COc1cccc2c1nc(N)n1nc(CN(Cc3ccc(C(F)(F)F)cc3)C(=O)NC(C)C)nc21 [Example 20.2, 1-((5-amino-7-methoxy-[1,2,4]triazolo[1,5-c]quinazolin-2-yl)methyl)-3-isopropyl-1-(4-(trifluoromethyl)benzyl)urea]
27 | 22.6 | COc1cccc2c1nc(N)n1nc(CN(Cc3ccc(OC(F)(F)F)cc3)C(=O)NC(C)C)nc21 [Example 20.3, 1-((5-amino-7-methoxy-[1,2,4]triazolo[1,5-c]quinazolin-2-yl)methyl)-3-isopropyl-1-(4-(trifluoromethoxy)benzyl)urea]
28 | 5.7 | COc1cccc2c1nc(N)n1nc(CNC(=O)NCc3ccc(Cl)cc3)nc21 [Example 20.4, 1-((5-amino-7-methoxy-[1,2,4]triazolo[1,5-c]quinazolin-2-yl)methyl)-3-(4-chlorobenzyl)urea]
